Data published in patent publication EP0644194A1, “PYRIDOTHIAZINEACETIC ACID COMPOUND, PROCESS FOR PRODUCING THE SAME, AND USE THEREOF” (THE GREEN CROSS CORPORATION, priority 1993, dated 1994).
Like-named read-outs stand apart in the source and are kept apart here. Marks after values point to notes of the source that are not given here.

Legend:
[1] = tested on: sorbitol accumulation in tissues; test: Inhibitory action on sorbitol accumulation in tissues of rats with experimental diabetes (streptozotocin); assay type: in vivo, Sprague-Dawley rats; conditions: percent of control (100%), oral at 4, 8 and 24 hours after streptozotocin, Example 9 at 10 mg/kg, EPALRESTAT at 30 mg/kg, 3 hours after final administration; for Sorbitol accumulation, nerve: sciatic nerve
Protocol: Sprague-Dawley rats (male, 6 weeks old, 5-6 per group) were fasted for 18 hours and injected with streptozotocin (SIGMA, 60 mg/kg) via the tail vein under etherization to prepare rats with diabetes.
The test drugs were orally administered at 4, 8 and 24 hours after the injection of streptozotocin. The compound of Example 9 was administered at 10 mg/kg and EPALRESTAT was administered at 30 mg/kg as a 0.5% carboxymethylcellulose suspension, respectively. During the administrations, the rats were raised under free access to feed and water and the sorbitol content in the tissues (erythrocytes, sciatic nerve, lens) was determined 3 hours after the final administration, according to the enzyme method of H.Y. Bergmeyer et al. [Methods of Enzymatic Analysis, vol. 3, 1323-1330 (1974)] with the use of SDH (sorbitol dehydrogenase) and NAD (β-nicotinamide adenine dinucleotide). The results (sorbitol accumulation) are expressed in percent (%) relative to the value of a control group administered with a 0.5% carboxymethylcellulose solution (solvent) instead of the drug, which was taken as 100%.

aldose reductase = biological target: T1, aldose reductase (Sus scrofa, UniProt P80276); test: Aldose reductase inhibitory action (method of S. Hayman et al., absorbance change at 340 nm); assay type: biochemical, swine
T1 construct: swine lenses freeze-stored at -80°C were homogenized with distilled water; from tissue; host or cells: swine lens
Protocol: That is, swine lenses freeze-stored at -80°C were homogenized with distilled water and cetrifuged at 10,000 G for 15 minutes. The supernatant was prepared into a 40% ammonium sulfate solution and subjected to cetrifugation at 10,000 G for 10 minutes.
The activity of aldose reductase was determined by the above-mentioned method of S. Hayman et al. That is, the above-mentioned enzyme solution (25 µl) and a drug solution (25 µl) dissolved in 1% DMSO at various concentrations were added to a 40 mM phosphate buffer (200 µl, pH 6.2) containing final concentrations of 0.4 M lithium sulfate, 0.1 mM NADPH (reduced type nicotinamide adenine dinucleotide phosphate) and 3 mM dl-glyceraldehyde as a substrate. […] The test drug number indicates the example number to be mentioned later. […]

ICR mice = test: Acute toxicity of a single oral dose; assay type: in vivo; conditions: 300 mg/kg single oral dose, male ICR mice, observation for 14 days
Protocol: Normal ICR mice (male, 7 weeks old, 5 per group) were fasted for 18 hours and the compound (300 mg/kg) of Example 9 was orally administered as a 0.5% carboxymethylcellulose suspension. To the control group, a 0.5% carboxymethylcellulose solution alone was orally administered and observation was continued for 14 days thereafter, during which period the mice were allowed to take feed and water freely.

[2] = swine lens enzyme, 3 mM dl-glyceraldehyde as substrate, 0.1 mM NADPH, pH 6.2, 25°C, read-out: IC₅₀

Question: For `CC(/C=C1\SC(=S)N(CC(=O)O)C1=O)=C\c1ccccc1` [EPALRESTAT, reference compound], which “Sorbitol accumulation, erythrocytes” value [1] is on record?
Answer: 66.5%

Question: What about the “Sorbitol accumulation, lens” value [1] of the same compound?
Answer: 89.1%

Question: And the “Sorbitol accumulation, nerve” value [1]?
Answer: 99.9%

Question: What about the IC50 (aldose reductase) of the same compound?
Answer: 21 nM

Question: `O=C(O)CC1Sc2ncccc2N(Cc2nc3c(F)c(F)cc(F)c3s2)C1=O` (stereo not shown) [Compound of Ex. 9, 2-[4-(4,5,7-Trifluorobenzothiazol-2-yl)methyl-3-oxo-3,4-dihydro-2H-pyrido[2,3-b][1,4]thiazin-2-yl]acetic acid] was tested. Which “Sorbitol accumulation, erythrocytes” value [1] did it give?
Answer: 59.0* %

Question: And the “Sorbitol accumulation, lens” value [1]?
Answer: 66.2* %

Question: What about the “Sorbitol accumulation, nerve” value [1] of the same compound?
Answer: 3.3* %

Question: And the death cases (ICR mice)?
Answer: no death case

Question: What about the body weight transition (ICR mice; compared with control group) of the same compound?
Answer: showed transition in the same manner as in the control group

Question: What about the IC50 (aldose reductase; [2]) of the same compound?
Answer: 11 nM

Question: Which IC50 (aldose reductase; [2]) does the source give for `O=C(O)CC1Sc2cnccc2N(Cc2nc3c(F)c(F)cc(F)c3s2)C1=O` (stereo not shown) [Compound of Ex.14, 2-[4-(4,5,7-Trifluorobenzothiazol-2-yl)methyl-3-oxo-3,4-dihydro-2H-pyrido[3,4-b][1,4]thiazin-2-yl]acetic acid] here?
Answer: 12 nM

Question: Which IC50 (aldose reductase; [2]) does the source give for `O=C(O)CC1Sc2ncccc2N(Cc2nc3c(Cl)c(Cl)ccc3s2)C1=O` (stereo not shown) [Compound of Ex.12, 2-[4-(4,5-Dichlorobenzothiazol-2-yl)methyl-3-oxo-3,4-dihydro-2H-pyrido[2,3-b][1,4]thiazin-2-yl]acetic acid] here?
Answer: 12 nM

Question: `O=C(O)CC1Sc2ncccc2N(Cc2nc3c(F)c(F)ccc3s2)C1=O` (stereo not shown) [Compound of Ex.10, 2-[4-(4,5-Difluorobenzothiazol-2-yl)methyl-3-oxo-3,4-dihydro-2H-pyrido[2,3-b][1,4]thiazin-2-yl]acetic acid] was tested. Which IC50 (aldose reductase; [2]) did it give?
Answer: 12 nM
